What was measured:
[1] = target: T1, horse liver alcohol dehydrogenase (HLADH) (Equus caballus, UniProt P00327); experiment: HLADH enzymatic chiral reduction of ketones with biomimic co-factor regeneration; type: biochemical
T1 construct: purchased Sigma
Method: FIG. 7 presents structures of ketone substrates 12-15 used for biomimic chiral synthesis of corresponding alcohols. Conversion of the substrates 12-15 to their corresponding alcohols are expressed in % yield, and TOF in d^−1 and S-enantiomer excess (ee) are also shown for each conversion. Corresponding values obtained with NAD^+ are given in parenthesis. The S-enantiomeric excess (ee) was determined by GLC with a modified β-cyclodextrin capillary column.
[Cp*Rh(bpy)(H2O)]OTf2 (1.9 mg, 2.61×10^−3 mmol), sodium formate (17.8 mg, 261.69×10^−3 mmol), NAD^+ (8.1 mg, 11.23×10^−3 mmol) and HLADH (10 units) were placed in a 10 mL Schlenk flask, and Schlenk techniques were followed to deoxygenate the solid mixture.
Under positive argon pressure, 5 mL of potassium phosphate buffer (100 mM, pH=7.02, deoxygenated) and carbonyl substrate (83.58×10^−3 mmol, deoxygenated) were added via syringe. The reaction flask was immediately securely capped with a glass-stopper and shaken with a shaker in 30° C. water-bath. The reaction was monitored by gas chromatography (GC), equipped with a β-cyclodextrin column (Supelco, β-DEX-225), and the products were identified by comparing the retention time with the corresponding authentic chiral samples and were confirmed by GC-MS. The enantiomeric excess of the products was determined directly by their relative area in the chromatogram. The progress of the reaction was obtained by mixing the reaction aliquot with an internal standard (cyclohexanol in phosphate buffer), and then calibrating the measured relative area in the chromatogram with their corresponding response factors. The reaction was monitored for 24 hours.
The same procedure as described in section A was followed, except that NAD^+ was substituted with any one of the biomimic compounds of the invention.

[2] = water solubility of biomimics

T1 sequence (P00327 2-375 limits assumed): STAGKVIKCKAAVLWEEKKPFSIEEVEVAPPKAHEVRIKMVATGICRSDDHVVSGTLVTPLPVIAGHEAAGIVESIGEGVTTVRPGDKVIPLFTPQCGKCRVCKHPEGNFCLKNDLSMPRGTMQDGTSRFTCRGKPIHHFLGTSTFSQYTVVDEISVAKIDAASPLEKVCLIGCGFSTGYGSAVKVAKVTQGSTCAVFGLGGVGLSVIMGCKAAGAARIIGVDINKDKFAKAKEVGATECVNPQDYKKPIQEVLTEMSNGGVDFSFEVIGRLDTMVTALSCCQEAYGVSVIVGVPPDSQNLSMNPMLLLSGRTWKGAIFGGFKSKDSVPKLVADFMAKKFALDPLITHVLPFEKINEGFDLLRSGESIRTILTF

Row | SMILES | recognition by HLADH as hydride catalyst of the chiral conversion [1] | water solubility [2]
1 | COP(=O)(O)OC[C@H]1O[C@@H](N2C=CCC(C(N)=O)=C2)[C@H](O)[C@@H]1O [Compound 7, β-1,4-dihydronicotinamide ribose-5′-methyl phosphate] | recognizes | completely water soluble
2 | C=CC(=O)OCCOCCOCC(=O)[n+]1cccc(C(N)=O)c1.[Br-] [Compound 10, 1-(8-acryloyloxy-3,6-dioxaoctanoyl)-3-carbamoylpyridinium bromide] |  | both water and organic solvent soluble

Source: US6716596B2, “Agents for replacement of NAD+/NADH system in enzymatic reactions” (The Regents of the University of California, priority 2001, dated 2004)
